US11485742B2, “2-azaspiro[3.4]octane derivatives as M4 agonists” (NOVARTIS AG, priority 2019, dated 2022)

Target: T1, human cloned CHRM5 receptor (Homo sapiens, UniProt P08912)
T1 construct: expressed in transfected cells; host or cells: CHO (M5_CHO)
T1 sequence (P08912 1-532): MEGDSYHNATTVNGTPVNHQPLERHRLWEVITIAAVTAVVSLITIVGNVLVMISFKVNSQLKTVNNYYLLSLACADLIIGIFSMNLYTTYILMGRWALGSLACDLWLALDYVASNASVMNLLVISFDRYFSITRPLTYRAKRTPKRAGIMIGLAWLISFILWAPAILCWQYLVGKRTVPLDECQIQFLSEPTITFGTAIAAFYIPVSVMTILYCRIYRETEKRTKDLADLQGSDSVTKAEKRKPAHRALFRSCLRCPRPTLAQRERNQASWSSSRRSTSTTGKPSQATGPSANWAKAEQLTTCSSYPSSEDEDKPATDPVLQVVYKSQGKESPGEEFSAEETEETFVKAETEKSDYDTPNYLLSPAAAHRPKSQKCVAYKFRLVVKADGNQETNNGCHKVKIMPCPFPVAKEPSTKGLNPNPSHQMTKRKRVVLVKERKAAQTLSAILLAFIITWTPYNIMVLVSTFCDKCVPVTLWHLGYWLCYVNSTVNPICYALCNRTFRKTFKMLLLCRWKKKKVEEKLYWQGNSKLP
Assay: CHRM5 Ca++ Flux Assay (M5_CHO cells, agonist mode)
Assay type: cell-based
Settings: for Emax: Percent Activity (PA) measured to EC100 of Carbachol, read-out: M5 FDSS PA %; for EC50: agonist mode, geometric mean if tested more than once, read-out: M5 FDSS EC50
How it was run: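 Agonist-mode calcium mobilisation: compounds, 11 concentrations in triplicate, applied to stable M3_CHO or M5_CHO cells loaded with Ca++ dye, fluorescence followed 3 min. Efficacy expressed against carbachol EC100; EC curves by four-parameter nonlinear regression, geometric mean across independent runs.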

| Compound | Emax [%] | EC50 [µM] |
| --- | --- | --- |
| Fc1ccc(OC2COC2)c(C2CCN([C@@H]3COC4(C3)CN(c3nnco3)C4)CC2)c1 [Example 1A, (S)-7-(4-(5-fluoro-2-(oxetan-3-yloxy)phenyl)piperidin-1-yl)-2-(1,3,4-oxadiazol-2-yl)-5-oxa-2-azaspiro[3.4]octane] | 0 | > 25 |
| Fc1ccc(OC[C@H]2CCOC2)c(C2CCN([C@@H]3COC4(C3)CN(c3nnco3)C4)CC2)c1 [Example 1I, (S)-7-(4-(5-fluoro-2-(((S)-tetrahydrofuran-3-yl)methoxy)phenyl)piperidin-1-yl)-2-(1,3,4-oxadiazol-2-yl)-5-oxa-2-azaspiro[3.4]octane] | 0 | > 25 |
| Fc1ccc(OCC2CCOCC2)c(C2CCN([C@@H]3COC4(C3)CN(c3nnco3)C4)CC2)c1 [Example 1J, (S)-7-(4-(5-fluoro-2-((tetrahydro-2H-pyran-4-yl)methoxy)phenyl)piperidin-1-yl)-2-(1,3,4-oxadiazol-2-yl)-5-oxa-2-azaspiro[3.4]octane] | 0 | > 25 |
| COC(C)(C)CCOc1ccc(F)cc1C1CCN([C@@H]2COC3(C2)CN(c2nnco2)C3)CC1 [Example 1K, (S)-7-(4-(5-fluoro-2-(3-methoxy-3-methylbutoxy)phenyl)piperidin-1-yl)-2-(1,3,4-oxadiazol-2-yl)-5-oxa-2-azaspiro[3.4]octane] | 0 | > 25 |
| COCCOc1ccc(F)cc1C1CCN([C@@H]2COC3(C2)CN(c2nnco2)C3)CC1 [Example 1L, (S)-7-(4-(5-fluoro-2-(2-methoxyethoxy)phenyl)piperidin-1-yl)-2-(1,3,4-oxadiazol-2-yl)-5-oxa-2-azaspiro[3.4]octane] | 0 | > 25 |
| Fc1ccc(OC2COCOC2)c(C2CCN([C@@H]3COC4(C3)CN(c3nnco3)C4)CC2)c1 [Example 1M, (S)-7-(4-(2-((1,3-dioxan-5-yl)oxy)-5-fluorophenyl)piperidin-1-yl)-2-(1,3,4-oxadiazol-2-yl)-5-oxa-2-azaspiro[3.4]octane] | 0 | > 25 |
| CC(C)(O)CCOc1ccc(F)cc1C1CCN([C@@H]2COC3(C2)CN(c2nnco2)C3)CC1 [Example 1N, (S)-4-(2-(1-(2-(1,3,4-oxadiazol-2-yl)-5-oxa-2-azaspiro[3.4]octan-7-yl)piperidin-4-yl)-4-fluorophenoxy)-2-methylbutan-2-ol] | 0 | > 25 |
| c1ccc(C2CCN([C@@H]3COC4(C3)CN(c3nnco3)C4)CC2)c(O[C@@H]2CCOC2)c1 [Example 1O, (S)-2-(1,3,4-oxadiazol-2-yl)-7-(4-(2-(((R)-tetrahydrofuran-3-yl)oxy)phenyl)piperidin-1-yl)-5-oxa-2-azaspiro[3.4]octane] | 0 | > 25 |
| c1ccc(C2CCN([C@@H]3COC4(C3)CN(c3nnco3)C4)CC2)c(OC2COC2)c1 [Example 1P, (S)-2-(1,3,4-oxadiazol-2-yl)-7-(4-(2-(oxetan-3-yloxy)phenyl)piperidin-1-yl)-5-oxa-2-azaspiro[3.4]octane] | 0 | > 25 |
| COc1ccccc1C1CCN([C@@H]2COC3(C2)CN(c2nnco2)C3)CC1 [Example 1Q, (S)-7-(4-(2-methoxyphenyl)piperidin-1-yl)-2-(1,3,4-oxadiazol-2-yl)-5-oxa-2-azaspiro[3.4]octane] | 0 | > 25 |
| Fc1cc(O[C@@H]2CCOC2)c(C2CCN([C@@H]3COC4(C3)CN(c3nnco3)C4)CC2)cc1F [Example 1R, (S)-7-(4-(4,5-difluoro-2-(((R)-tetrahydrofuran-3-yl)oxy)phenyl)piperidin-1-yl)-2-(1,3,4-oxadiazol-2-yl)-5-oxa-2-azaspiro[3.4]octane] | 0 | > 25 |
| COc1cc(F)ccc1C1CCN([C@@H]2COC3(C2)CN(c2nnco2)C3)CC1 [Example 1S, (S)-7-(4-(4-fluoro-2-methoxyphenyl)piperidin-1-yl)-2-(1,3,4-oxadiazol-2-yl)-5-oxa-2-azaspiro[3.4]octane] | 0 | > 25 |
| CC(C)(O)CCOc1cc(F)ccc1C1CCN([C@@H]2COC3(C2)CN(c2nnco2)C3)CC1 [Example 1T, (S)-4-(2-(1-(2-(1,3,4-oxadiazol-2-yl)-5-oxa-2-azaspiro[3.4]octan-7-yl)piperidin-4-yl)-5-fluorophenoxy)-2-methylbutan-2-ol] | 0 | > 25 |
| CC(C)(O)COc1ccc(F)cc1C1CCN([C@@H]2COC3(C2)CN(c2nnco2)C3)CC1 [Example 1U, (S)-1-(2-(1-(2-(1,3,4-oxadiazol-2-yl)-5-oxa-2-azaspiro[3.4]octan-7-yl)piperidin-4-yl)-4-fluorophenoxy)-2-methylpropan-2-ol] | 0 | > 25 |
| COc1ccc(F)cc1C1CCN([C@@H]2COC3(C2)CN(c2nnco2)C3)CC1 [Example 1V, (S)-7-(4-(5-fluoro-2-methoxyphenyl)piperidin-1-yl)-2-(1,3,4-oxadiazol-2-yl)-5-oxa-2-azaspiro[3.4]octane] | 0 | > 25 |
| c1ccc(C2CCN([C@@H]3COC4(C3)CN(c3nnco3)C4)CC2)c(-c2cncnc2)c1 [Example 1W, (S)-2-(1,3,4-oxadiazol-2-yl)-7-(4-(2-(pyrimidin-5-yl)phenyl)piperidin-1-yl)-5-oxa-2-azaspiro[3.4]octane] | 20 | 13.8 |
| c1ccc(C2CCN([C@@H]3COC4(C3)CN(c3nnco3)C4)CC2)c(-c2ncco2)c1 [Example 1X, (S)-2-(1,3,4-oxadiazol-2-yl)-7-(4-(2-(oxazol-2-yl)phenyl)piperidin-1-yl)-5-oxa-2-azaspiro[3.4]octane] | 0 | > 25 |
| Cc1nnc(-c2ccccc2C2CCN([C@@H]3COC4(C3)CN(c3nnco3)C4)CC2)o1 [Example 1Y, (S)-7-(4-(2-(5-methyl-1,3,4-oxadiazol-2-yl)phenyl)piperidin-1-yl)-2-(1,3,4-oxadiazol-2-yl)-5-oxa-2-azaspiro[3.4]octane] | 0 | > 25 |

The next lines start with the values.

| Emax [%] | EC50 [µM] | Compound |
| --- | --- | --- |
| 0 | > 25 | Fc1ccc(OCC2COC2)c(C2CCN([C@@H]3COC4(C3)CN(c3nncs3)C4)CC2)c1 [Example 2A, (S)-7-(4-(5-fluoro-2-(oxetan-3-ylmethoxy)phenyl)piperidin-1-yl)-2-(1,3,4-thiadiazol-2-yl)-5-oxa-2-azaspiro[3.4]octane] |
| 0 | > 25 | CC1(COc2ccc(F)cc2C2CCN([C@@H]3COC4(C3)CN(c3nncs3)C4)CC2)COC1 [Example 2B, (S)-7-(4-(5-fluoro-2-((3-methyloxetan-3-yl)methoxy)phenyl)piperidin-1-yl)-2-(1,3,4-thiadiazol-2-yl)-5-oxa-2-azaspiro[3.4]octane] |
| 23 | 1.67 | Cc1nnc(COc2ccc(F)cc2C2CCN([C@@H]3COC4(C3)CN(c3nnco3)C4)CC2)s1 [Example 2E, (S)-7-(4-(5-fluoro-2-((5-methyl-1,3,4-thiadiazol-2-yl)methoxy)phenyl)piperidin-1-yl)-2-(1,3,4-oxadiazol-2-yl)-5-oxa-2-azaspiro[3.4]octane] |
| 30 | 3.65 | Cc1nnc(COc2ccc(F)cc2C2CCN([C@@H]3COC4(C3)CN(c3nnco3)C4)CC2)o1 [Example 2F, (S)-7-(4-(5-fluoro-2-((5-methyl-1,3,4-oxadiazol-2-yl)methoxy)phenyl)piperidin-1-yl)-2-(1,3,4-oxadiazol-2-yl)-5-oxa-2-azaspiro[3.4]octane] |
| 0 | > 25 | Cc1cc(COc2ccc(F)cc2C2CCN([C@@H]3COC4(C3)CN(c3nnco3)C4)CC2)on1 [Example 2G, (S)-7-(4-(5-fluoro-2-((3-methylisoxazol-5-yl)methoxy)phenyl)piperidin-1-yl)-2-(1,3,4-oxadiazol-2-yl)-5-oxa-2-azaspiro[3.4]octane] |
| 0 | > 25 | Fc1ccc(OCC2COC2)c(C2CCN([C@@H]3COC4(C3)CN(c3nnco3)C4)CC2)c1 [Example 2H, (S)-7-(4-(5-fluoro-2-(oxetan-3-ylmethoxy)phenyl)piperidin-1-yl)-2-(1,3,4-oxadiazol-2-yl)-5-oxa-2-azaspiro[3.4]octane] |
| 0 | > 25 | Fc1ccc(OCc2ncccn2)c(C2CCN([C@@H]3COC4(C3)CN(c3nnco3)C4)CC2)c1 [Example 2I, (S)-7-(4-(5-fluoro-2-(pyrimidin-2-ylmethoxy)phenyl)piperidin-1-yl)-2-(1,3,4-oxadiazol-2-yl)-5-oxa-2-azaspiro[3.4]octane] |
| 0 | > 25 | Fc1ccc(OCC2(F)COC2)c(C2CCN([C@@H]3COC4(C3)CN(c3nnco3)C4)CC2)c1 [Example 2J, (S)-7-(4-(5-fluoro-2-((3-fluorooxetan-3-yl)methoxy)phenyl)piperidin-1-yl)-2-(1,3,4-oxadiazol-2-yl)-5-oxa-2-azaspiro[3.4]octane] |
| 0 | > 25 | CC1(COc2ccc(F)cc2C2CCN([C@@H]3COC4(C3)CN(c3nnco3)C4)CC2)COC1 [Example 2K, (S)-7-(4-(5-fluoro-2-((3-methyloxetan-3-yl)methoxy)phenyl)piperidin-1-yl)-2-(1,3,4-oxadiazol-2-yl)-5-oxa-2-azaspiro[3.4]octane] |
